Active and inactive are the calls of the source.
Legend:
[1] = Apparent permeability from apical to basolateral side in human Caco2 cells assessed as mass balance at 100 uM after 15 to 120 mins by LC-MS analysis; type: ADME, cell-based; conditions: Caco-2, read-out: Activity
[2] = Apparent permeability from basolateral to apical side in human Caco2 cells assessed as mass balance at 100 uM after 15 to 120 mins by LC-MS analysis; type: ADME, cell-based; conditions: Caco-2, read-out: Activity
[3] = Apparent permeability from basolateral to apical side in human Caco2 cells at 100 uM after 15 to 120 mins by LC-MS analysis; type: ADME, cell-based; conditions: Caco-2
[4] = Efflux ratio of apparent permeability from basolateral to apical over apical to basolateral side in human Caco2 cells at 100 uM after 15 to 120 mins by LC-MS analysis; type: ADME, cell-based; conditions: Caco-2
[5] = Apparent permeability from apical to basolateral side in human Caco2 cells at 100 uM after 15 to 120 mins by LC-MS analysis; type: ADME, cell-based; conditions: Caco-2
Mus musculus [6] = test: Antiallodynic activity in NMRI mouse model of spared nerve injury-induced mechanical allodynia assessed as pain relief at 585 umol/kg, ip administered 14 days post spared nerve injury surgery measured at 30 mins post dose Von Frey filament assay; type: functional, organism-based
Mus musculus [7] = test: Antiallodynic activity in NMRI mouse model of spared nerve injury-induced mechanical allodynia assessed as pain relief at 585 umol/kg, ip administered 14 days post spared nerve injury surgery measured at 180 mins post dose by Von Frey filament assay; type: functional, organism-based
Mus musculus [8] = test: Antiallodynic activity in NMRI mouse model of spared nerve injury-induced mechanical allodynia assessed as pain relief at 585 umol/kg, ip administered 14 days post spared nerve injury surgery measured at 60 mins post dose by Von Frey filament assay; type: functional, organism-based
Mus musculus [9] = test: Antiallodynic activity in ip dosed NMRI mouse model of spared nerve injury-induced mechanical allodynia assessed as pain relief administered 14 days post spared nerve injury surgery measured at 15 to 60 mins post dose by Von Frey filament assay; type: functional
[10] = Half life in NMRI mouse plasma at 4 uM after 180 mins by LC-MS/MS analysis; type: ADME, cell-free
Mus musculus [11] = test: Antiallodynic activity in NMRI mouse model of spared nerve injury-induced mechanical allodynia assessed as increase in mechanical threshold at 185 nmol/kg, ip administered 14 days post spared nerve injury surgery measured at 15 to 60 mins post dose by Von Frey filament assay; type: functional, organism-based
Mus musculus [12] = test: Antiallodynic activity in NMRI mouse model of spared nerve injury-induced mechanical allodynia assessed as pain relief at 12 umol/kg, ip administered 14 days post spared nerve injury surgery measured at 45 mins post dose by Von Frey filament assay; type: functional, organism-based
Mus musculus [13] = test: Antiallodynic activity in NMRI mouse model of spared nerve injury-induced mechanical allodynia assessed as increase in mechanical threshold at 1.85 to 1850 nmol/kg, ip administered 14 days post spared nerve injury surgery measured at 45 mins post dose by Von Frey filament assay; type: functional, organism-based
[14] = Cytotoxicity against Sprague-Dawley rat primary cortical cells assessed as reduction in […] at 10^-5 to 10^-9 M after 24 hrs by LDH assay; type: cell-based
Mus musculus [15] = test: Potency index, ratio of gabapentin ED50 to compound ED50 for antiallodynic activity in ip dosed NMRI mouse model of spared nerve injury-induced mechanical allodynia by Von Frey filament assay; type: functional
Mus musculus [16] = test: Antiallodynic activity in NMRI mouse model of spared nerve injury-induced mechanical allodynia assessed as increase in mechanical threshold at 185 nmol/kg, ip administered 14 days post spared nerve injury surgery and co-treated with 1850 nmol/kg, ip D-SP1-7 by Von Frey filament assay; type: functional, organism-based
Mus musculus [17] = test: Antiallodynic activity in NMRI mouse model of spared nerve injury-induced mechanical allodynia assessed as increase in mechanical threshold at 1.85 to 1850 nmol/kg, ip administered 14 days post spared nerve injury surgery measured at 30 mins post dose by Von Frey filament assay; type: functional, organism-based
Mus musculus [18] = test: Antiallodynic activity in ip dosed NMRI mouse model of spared nerve injury-induced mechanical allodynia assessed as increase in mechanical threshold administered 14 days post spared nerve injury surgery by Von Frey filament assay; type: functional, organism-based
[19] = Cytotoxicity against Sprague-Dawley rat primary cortical cells assessed as reduction in cell viability at 10^-5 to 10^-9 M after 24 hrs by MTT assay; type: cell-based
Mus musculus [20] = test: Antiallodynic activity in NMRI mouse model of spared nerve injury-induced mechanical allodynia assessed as increase in mechanical threshold at 185 to 1850 nmol/kg, ip administered 14 days post spared nerve injury surgery measured at 15 to 60 mins post dose by Von Frey filament assay; type: functional, organism-based
[21] = Half life in human plasma at 4 uM after 180 mins by LC-MS/MS analysis; type: ADME, cell-free
Mus musculus [22] = test: Potency index, ratio of morphine ED50 to compound ED50 for antiallodynic activity in ip dosed NMRI mouse model of spared nerve injury-induced mechanical allodynia by Von Frey filament assay; type: functional

Molecule | recovery at 100 µM [1] [%] | recovery at 100 µM [2] [%] | Papp B→A at 100 µM [3] [×10⁻⁶ cm/s] | efflux ratio at 100 µM [4] | Papp A→B at 100 µM [5] [×10⁻⁶ cm/s] | ED50 (Mus musculus [9]) [µmol/kg] | half-life at 4 µM [10] [min] | Activity (Mus musculus [11]) | further results
OC[C@@H](O)[C@@H](O)[C@H](O)[C@H](O)CO [MANNITOL] | 97 to 101 | 99 to 103 | 0.2 | 1.4 | 0.1 |  |  |  | 
NCC1(CC(=O)O)CCCCC1 [GABAPENTIN] |  |  |  |  |  | 336 |  |  | Activity (Mus musculus [6]): Active; Activity (Mus musculus [7]): inactive; Activity (Mus musculus [8]): Active
H-RPKPQQF-NH2 |  |  |  |  |  |  | 6.4 | Active | 
CN1CC[C@]23c4c5ccc(O)c4O[C@H]2[C@@H](O)C=C[C@H]3[C@H]1C5 [MORPHINE] |  |  |  |  |  | 6.5 |  |  | Activity (Mus musculus [12]): Active
NC(=O)[C@H](Cc1ccccc1)NC(=O)c1[nH]cnc1-c1ccccc1 | 65 | 67 | 16 | 19 | 0.84 | 0.21 | ≥ 180 | Active | Activity (Mus musculus [13]): inactive; Activity [14]: Non-Toxic; Ratio ED50 (Mus musculus [15]): 1600; Activity (Mus musculus [16]): inactive; Activity (Mus musculus [17]): Active; Activity (Mus musculus [18]): Dose-dependent effect; Activity [19]: Non-Toxic; Activity (Mus musculus [20]): Active; half-life at 4 µM [21]: > 180 min; Ratio ED50 (Mus musculus [22]): 30
H-RPKPQQF-OH |  |  |  |  |  |  | 4.4 |  | 

From ChEMBL document CHEMBL4118280, “An imidazole based H-Phe-Phe-NH2 peptidomimetic with anti-allodynic effect in spared nerve injury mice” (Bioorg Med Chem Lett, 2018)
